The results in this text go back to ChEMBL document CHEMBL1158702, “Cytotoxic 4-phenylcoumarins from the leaves of Marila pluricostata” (2005).

Holding throughout (format): functional
One assay deals with SF-268. Nature of the assay: Cytotoxicity against human SF268 cells.
The test system of another assay is NCI-H460. Nature of the assay: Cytotoxicity against human H460 cells.
Another assay relates to MCF7. The assay is described as follows: Cytotoxicity against human MCF7 cells.

Each structure is given as a SMILES string. Converted amounts (≈) assume the structure as drawn.

By GI50 is commonly meant the concentration that inhibits growth by half. Take `CC(C)C(=O)c1c2c(c3oc(=O)cc(-c4ccccc4)c3c1O)C=CC(C)(C)O2` [MESUAGIN]: the GI50 with SF-268, in the assay with NCI-H460 and in the assay with MCF7 was > 10 µg/mL each time.
For the molecule `CC(C)CC(=O)c1c2c(c3oc(=O)cc(-c4ccccc4)c3c1O)C=CC(C)(C)O2` [MAMMEIGIN], the 50% growth inhibitory concentration (GI50) in the assay on SF-268, in the assay with NCI-H460 and with MCF7 was > 10 µg/mL throughout.
For `CC(C)CC(=O)c1c(O)cc(O)c2c(-c3ccccc3)cc(=O)oc12` [ISODISPAR B], the 50% growth inhibitory concentration (GI50) in the assay on SF-268 turned out to be 1.8 µg/mL (≈ 5.32 µM); in the assay on NCI-H460, 1.9 µg/mL (≈ 5.62 µM); in the assay with MCF7, 1.5 µg/mL (≈ 4.43 µM).
Take `CC(C)=CCc1c(O)c(C(=O)C(C)C)c(O)c2c(-c3ccccc3)cc(=O)oc12` [MESUOL]: the GI50 with SF-268 was 0.1 µg/mL (≈ 0.255 µM); with NCI-H460 it was 0.3 µg/mL (≈ 0.764 µM); in the assay on MCF7, 0.2 µg/mL (≈ 0.51 µM).
As to `CC(C)=CCc1c(O)c(C(=O)CC(C)C)c(O)c2c(-c3ccccc3)cc(=O)oc12` [MAMMEISIN], the GI50 in the assay with SF-268 amounted to 0.1 µg/mL (≈ 0.246 µM); in the assay with NCI-H460 it was 0.2 µg/mL (≈ 0.492 µM); in the assay on MCF7, 0.2 µg/mL (≈ 0.492 µM).
`CCC(C)C(=O)c1c2c(c3oc(=O)cc(-c4ccccc4)c3c1O)C[C@@H](C(C)(C)O)O2` (some centres not stated): the GI50 is 4.8 µg/mL (≈ 11.4 µM) with SF-268, 4.4 µg/mL (≈ 10.4 µM) in the assay with NCI-H460 and 3.4 µg/mL (≈ 8.05 µM) with MCF7.
As to `CC(C)=CCc1c(O)cc(O)c2c(-c3ccccc3)cc(=O)oc12`, the GI50 in the assay on SF-268 stood at 4.8 µg/mL (≈ 14.9 µM); in the assay with NCI-H460, 4.4 µg/mL (≈ 13.6 µM); in the assay with MCF7 it was 3.4 µg/mL (≈ 10.5 µM).
Regarding `CC(=O)Oc1c(C(=O)CC(C)C)c(OC(C)=O)c2c(-c3ccccc3)cc(=O)oc2c1CC=C(C)C` [MAMMEISIN DIACETATE], the GI50 with SF-268 worked out at 0.5 µg/mL; in the assay with NCI-H460, 0.6 µg/mL; in the assay on MCF7, 0.6 µg/mL.
With `C=C(C)C(O)Cc1c(O)c(C(=O)CC(C)C)c(O)c2c(-c3ccccc3)cc(=O)oc12` (configuration not stated) [DISPARINOL A], the values for the GI50 in the assay with SF-268, in the assay with NCI-H460 and in the assay on MCF7 were 0.5 µg/mL (≈ 1.18 µM), 0.6 µg/mL (≈ 1.42 µM) and 0.9 µg/mL (≈ 2.13 µM), respectively.
Regarding `CC(C)=CCc1c(O)c(C(=O)CC(C)C)c2oc(=O)cc(-c3ccccc3)c2c1O` [ISOMAMMEISIN], the GI50 stood at 0.6 µg/mL (≈ 1.48 µM) in the assay with SF-268, 0.8 µg/mL (≈ 1.97 µM) with NCI-H460 and 0.7 µg/mL (≈ 1.72 µM) in the assay with MCF7.
As to `CCC(C)C(=O)c1c2c(c3oc(=O)cc(-c4ccccc4)c3c1O)C=CC(C)(C)O2` (configuration not stated), the GI50 with SF-268 is > 10 µg/mL; in the assay with NCI-H460 it was > 10 µg/mL; with MCF7, 9.6 µg/mL (≈ 23.7 µM).
Consider `CC(C)=CCc1c(O)c(C(=O)C(C)C)c2oc(=O)cc(-c3ccccc3)c2c1O` [ISOMESUOL], for which the GI50 was determined as 0.6 µg/mL (≈ 1.53 µM) with SF-268, 0.6 µg/mL (≈ 1.53 µM) with NCI-H460 and 0.7 µg/mL (≈ 1.78 µM) with MCF7.
With `CCC(C)C(=O)c1c(O)c(CC=C(C)C)c(O)c2c(-c3ccccc3)cc(=O)oc12` (configuration not stated), the 50% growth inhibitory concentration (GI50) with SF-268 stood at 0.1 µg/mL (≈ 0.246 µM); with NCI-H460, 0.3 µg/mL (≈ 0.738 µM); in the assay on MCF7, 0.2 µg/mL (≈ 0.492 µM).
In the same order, the values of `CC(C)CC(=O)c1c2c(c3oc(=O)cc(-c4ccccc4)c3c1O)C[C@@H](C(C)(C)O)O2` [CYCLOMAMMEISIN] are 5.2 µg/mL (≈ 12.3 µM), 4.6 µg/mL (≈ 10.9 µM) and 4.2 µg/mL (≈ 9.94 µM).
In the same order, the values of `COc1c(C(=O)CC(C)C)c(O)c(CC=C(C)C)c2oc(=O)cc(-c3ccccc3)c12` are 0.4 µg/mL (≈ 0.951 µM), 0.5 µg/mL (≈ 1.19 µM) and 0.4 µg/mL (≈ 0.951 µM).
In the same order, the values of `CCC(C)C(=O)c1c(O)c(CC=C(C)C)c2oc(=O)cc(-c3ccccc3)c2c1O` (configuration not stated) are 0.1 µg/mL (≈ 0.246 µM), 0.1 µg/mL (≈ 0.246 µM) and 0.2 µg/mL (≈ 0.492 µM).
For `CC1(C)CCc2c(cc(O)c3c(-c4ccccc4)cc(=O)oc23)O1`, the figures for the GI50 in the assay on SF-268, in the assay with NCI-H460 and in the assay with MCF7 were 7.8 µg/mL (≈ 24.2 µM), 6.7 µg/mL (≈ 20.8 µM) and 5.7 µg/mL (≈ 17.7 µM), respectively.
As to `CCC(=O)c1c2c(c3oc(=O)cc(-c4ccccc4)c3c1O)CCC(C)(C)O2`, the GI50 with SF-268 came out at 6.8 µg/mL (≈ 18 µM); in the assay on NCI-H460, 5.7 µg/mL (≈ 15.1 µM); in the assay on MCF7 it was 4.7 µg/mL (≈ 12.4 µM).
For `CC(C)C(=O)c1c2c(c3oc(=O)cc(-c4ccccc4)c3c1O)C[C@@H](C(C)(C)O)O2` [MESUOL CYCLO F], the results for the GI50 in the assay with SF-268, with NCI-H460 and in the assay on MCF7 were 6.4 µg/mL (≈ 15.7 µM), 6.1 µg/mL (≈ 14.9 µM) and 5.8 µg/mL (≈ 14.2 µM), respectively.
